The target in one assay is T1, hCRHR2α Gq (Homo sapiens, UniProt Q13324).
T1 construct: expressed in transfected cells; host or cells: HEK293 cells (Millipore Sigma), transient PEI co-transfection with biosensor plasmids at Domain Therapeutics
T1 sequence (Q13324 1-411): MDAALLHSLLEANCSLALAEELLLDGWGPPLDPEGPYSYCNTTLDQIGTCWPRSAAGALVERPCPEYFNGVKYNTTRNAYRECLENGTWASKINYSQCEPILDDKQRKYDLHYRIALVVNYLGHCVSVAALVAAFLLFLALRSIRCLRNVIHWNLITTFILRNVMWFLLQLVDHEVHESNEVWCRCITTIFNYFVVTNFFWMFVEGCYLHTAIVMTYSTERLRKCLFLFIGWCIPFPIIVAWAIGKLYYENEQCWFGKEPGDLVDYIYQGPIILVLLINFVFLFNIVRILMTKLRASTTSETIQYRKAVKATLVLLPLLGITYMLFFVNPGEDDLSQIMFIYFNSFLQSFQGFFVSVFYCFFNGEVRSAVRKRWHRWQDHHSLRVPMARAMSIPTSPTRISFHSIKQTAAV
Nature of the assay: ebBRET EMTA, Gq biosensor. As to conditions: HEK293 cells, CRHR2a, n = 2 independent experiments. The assay is classed as cell-based. The method, then:
Typically, GPCR desensitization is carried out through the recruitment of β-Arrestins or alternative G-proteins to the receptor. To identify whether these proteins are recruited to CRHR2 in response to UCN2, enhanced bystander bioluminescence resonance energy transfer (ebBRET)-based effector membrane translocation assays (EMTA) were carried out in HEK293 cells[28],[29]. Cells were co-transfected with plasmids expressing unmodified CRHR2a (alpha isoform) and one of various pathway-specific biosensors. […]
Effector membrane translocation biosensor assays (bioSensAll®) were conducted at Domain Therapeutics NA Inc. (Montreal, QC, Canada) and described in cells[28],[29]. […] Briefly, DNA and PEI were diluted separately in 150 mM NaCl, mixed and then incubated for at least 20 min at room temperature (note: salmon sperm DNA (Invitrogen) was used to adjust the total amount of DNA transfected to a final quantity of 1 ug per mL of cell culture to be transfected). During the 20-minute incubation, HEK293 cells were detached, counted and resuspended into cell culture medium to a final density of 350,000 cells per mL. […] Cells were then incubated at room temperature for 10 min and BRET readings subsequently collected with a 0.4 s integration time on a Synergy NEO plate reader (BioTek Instruments, Inc., USA; filters: 400 nm/70 nm, 515 nm/20 nm). […]

Assay [1] relates to soleus and gastrocnemius muscle. Nature of the assay: In vivo [3H]2-deoxyglucose uptake in soleus and gastrocnemius muscle. The arrangement: species or system mouse. As to conditions: [3H]2DG; for 2DG Uptake, gastrocnemius muscle: individual animals (Fig. 2I); for 2DG Uptake, soleus muscle: individual animals (Fig. 2J). How it is done: To determine 2-deoxy-glucose (2DG) uptake in soleus and gastrocnemius muscle, mice were fasted for 5 h and anaesthetized with isoflurane. […] 15 min following 2DG administration, blood was collected via intracardiac stick and soleus and gastrocnemius muscles were dissected and snap frozen in liquid nitrogen. Samples were stored at −80 C until processing. Blood was treated with BaOH2 and ZnSO4 and after centrifugation, radioactivity was determined via liquid scintillation counting (Tri-Carb 5110TR, PerkinElmer, Waltham, MA). Tissue was homogenized and mixed with water or BaOH2 and ZnSO4 to determine total and unphosphorylated 2DG content.

Another assay deals with mice. Put plainly: Food intake studies. Type of assay: in vivo, mouse. How it is done: For acute studies, animals were singly housed and injected IP with saline or 1 mg/kg UCN2 (source). Food intake for the next 24 h was determined by measuring food weight in ceramic bowls within the cage. For the chronic studies, animals were singly housed and injected with Vehicle, EGFP.AAV, or UCN2.AAV. Food weight was measured in ceramic bowls every 24 h for 7 days.

The mark [2] stands for this setting: UCN2 1 mg/kg IP +Insulin 0.75 IU/kg.
Where [3] appears, read: UCN2 1 mg/kg IP +Veh (no insulin).

“And” between values parts separate entries of the source, which are not always exact repeats. Identical values can stand only once. Where no end group is shown, it is not given here.

In the case of “IVLSLDVPIGLLQILLEQARARAAREQATTNARILARVGHC-NH2 (C-terminus assumed) [UCN2, Urocortin 2]”, the Gq recruitment entry on hCRHR2α Gq is “not recruited”. In assay [1] (setting [2]), the “2DG Uptake, gastrocnemius muscle” value was 17.97 µmol/g/h and 16.61 µmol/g/h and 11.65 µmol/g/h and 22.6 µmol/g/h and 21.1 µmol/g/h and 20.95 µmol/g/h and 16.15 µmol/g/h and 12.85 µmol/g/h; the “2DG Uptake, soleus muscle” value is 25.34 µmol/g/h and 15.14 µmol/g/h and 16.51 µmol/g/h and 20.54 µmol/g/h and 24.42 µmol/g/h and 24.35 µmol/g/h and 25.91 µmol/g/h and 18.85 µmol/g/h. Moreover, in assay [1] (setting [3]), the “2DG Uptake, gastrocnemius muscle” value was 2.37 µmol/g/h and 2.36 µmol/g/h and 2.81 µmol/g/h and 1.95 µmol/g/h and 2.97 µmol/g/h and 3.08 µmol/g/h and 2.83 µmol/g/h and 3.26 µmol/g/h; the “2DG Uptake, soleus muscle” value was 2.44 µmol/g/h and 2.26 µmol/g/h and 2.42 µmol/g/h and 2.39 µmol/g/h and 2.31 µmol/g/h and 2.62 µmol/g/h and 3.69 µmol/g/h. Also, the “Food Intake” value with mice (single IP dose 1 mg/kg UCN2, next 24 h, individual animals (Fig. 2K), 1 mg/kg) was 0.27 g and 0.3 g and 0.24 g and 0.15 g and 0.38 g and 0.46 g and 0.59 g. Moreover, the “food intake following UCN2 dosing” value with mice (single dose 1 mg/kg IP) is given as “decrease in food intake”.
